No end group written: not given here.
Key:
MRSA ATCC 33592 = assay: MIC determination in broth; format: cell-based, Staphylococcus aureus; settings: Table 1 and text; cation-adjusted MH broth, ~10^5 CFU/mL, 37°C, 16 h
Summary of the method: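 Broth microdilution in cation-adjusted Mueller-Hinton broth; cultures diluted to OD 5 × 10^−4 (∼10^5 CFU/mL) and exposed to 2-fold peptide dilution series. Plates incubated static at 37°C for staphylococci.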

M. luteus ATCC 4698 = assay: MIC determination in broth; format: cell-based, Micrococcus luteus; settings: cation-adjusted MH broth, ~10^5 CFU/mL, 30°C, 48 h
Experimental: M. luteus ATCC 4698, S. aureus ATCC 29213, a panel of 7 MRSA (ATCC MP-2) strains, which includes ATCC BAA-41, BAA-42, BAA-44, BAA-1683, BAA-2094, BAA-2313, and 33592, and a series of additional bacterial isolates from human and veterinary cases were used in this study (Table S6). Bacterial strains were routinely grown in lysogeny broth (LB: 10 g/L tryptone, 5 g/L yeast extract, 10 g/L NaCl) at 30°C (M. luteus) or 37°C (Staphylococcus spp.) prior to use in specific experiments described below.
The MICs were measured for bioactive peptides identified from the initial screen. Cation-adjusted Mueller-Hinton (MH) broth was used as the growth medium for MIC determination experiments. Bacterial cultures were diluted to an OD of 5 × 10^−4 (∼10^5 CFU/mL) in 200 μL MH broth mixed with peptides in a 2-fold dilution series arrayed in 96-well plates. Plates were incubated without shaking at 30 or 37°C depending on the organism.

S. aureus = assay: MIC of STIP3-1 alanine variants in liquid broth; format: cell-based, Staphylococcus aureus; settings: Table S4; maximum concentration tested 200 μg/mL; strain not given
Experimental: The MICs were measured for bioactive peptides identified from the initial screen. […] […] Plates were incubated without shaking at 30 or 37°C depending on the organism.

SspA protease = SspA protease (Staphylococcus aureus, UniProt P0C1U8); assay: SspA protease treatment with HPLC/MS analysis; format: in vitro ADME; settings: peptide 45 μL at 10 mg/mL + SspA 5 μL at 2 mg/mL, 100 mM HEPES pH 7.8, 37°C, 5 h
Experimental: SspA protease was resuspended at 2 mg/mL in 100 mM HEPES (pH 7.8). Peptide samples (45 μL at 10 mg/mL) were mixed with SspA (5 μL at 2 mg/mL) and incubated at 37°C for a total of 5 h. The antimicrobial activities of the reaction mixtures were assayed by spotting 5 μL (∼45 μg) of each on either M. luteus or S. aureus test organisms as described above. Additional samples were flash frozen in liquid nitrogen and stored at −80°C prior to high-pressure liquid chromatography-mass spectrometry (HPLC/MS) analysis.
HPLC/MS analyses were conducted to assess the proteolytic cleavage of STIPs by the SspA protease and catalogue peptides in the reaction mixtures. An Agilent Infinity II 1260 HPLC outfitted with a Phenomenex Lune C5 column (4.6 by 150 mm, 5 μm) was used to separate the peptide fragments using a binary solvent system consisting of solvent A (water, 0.05% formic acid) and solvent B (acetonitrile, 0.05% formic acid) operating at 0.7 mL/min. A 5-μL volume (∼4.5 μg) of each sample was injected at 10% solvent B, followed by a two-step gradient elution from 10% to 50% solvent B in 30 min, then 50% to 100% B in 10 min. The HPLC was coupled to an Advion CMS(L) single quadrupole mass detector through an electrospray ionization source, and ions were detected between 100 and 2,000 m/z. Low temperature and fragmentation settings were used: capillary temperature 135°C, capillary voltage 120 V, source voltage offset 20 V, source gas temperature 135°C, and electrospray ionization (ESI) voltage 3,500 V.

HeLa (ATCC CCL-2) cells = assay: HeLa cytotoxicity, alamarBlue; format: cell-based, human; settings: monolayers, 3.13 to 200 μg/mL, 24 h, alamarBlue fluorescence; estimated
Experimental: Cytotoxicity was measured using the 3D EpiDerm skin tissues and HeLa (ATCC CCL-2) cells using a fluorescent reporter of cell viability, alamarBlue (ThermoFisher Scientific). 3D EpiDerm skin tissues (MatTek EPI-200-AFAB) were transferred to a 12-well plate containing 600 μL of AFAB-assay medium supplemented with 10% vol/vol alamarBlue. […] HeLa cells were seeded in a 96-well plate at 2 × 10^4 cells/per well and incubated overnight at 37°C in a humidified 5% CO2 environment to prepare wells at ∼50% confluence for treatments after spent Dulbecco’s modified Eagle’s medium (DMEM) was removed and cells were washed with PBS. Assays were then performed using phenol red-free DMEM supplement with 9% vol/vol alamarBlue and peptide concentrations varying from 3.13 to 200 μg/mL. After a 24 h incubation period, alamarBlue fluorescence emission was measured at 590 nm upon excitation at 560 nm using Varioskan Lux plate reader (Thermo Scientific). Fluorescence intensities of treated cultures were normalized to measurement made for untreated control samples. Experimental data sets were fit to nonlinear dose-response curves to determine IC50 values using Origin 2019.

SspA protease, sequence (P0C1U8 69-336): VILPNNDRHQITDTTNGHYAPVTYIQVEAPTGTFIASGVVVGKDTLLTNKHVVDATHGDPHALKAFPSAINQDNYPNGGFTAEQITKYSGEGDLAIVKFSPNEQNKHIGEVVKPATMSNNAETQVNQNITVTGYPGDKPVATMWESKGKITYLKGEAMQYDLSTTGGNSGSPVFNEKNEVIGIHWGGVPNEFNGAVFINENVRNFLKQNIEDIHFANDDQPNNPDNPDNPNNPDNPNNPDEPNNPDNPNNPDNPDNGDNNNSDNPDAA

Sequence: TVGGLVKWILDTVKKFA [STIP3-1]
- MIC (μg/mL) for MRSA ATCC 33592 (MRSA ATCC 33592): 100 µg/mL
- MIC, M. luteus (M. luteus ATCC 4698): 12.5 µg/mL
- MIC, S. aureus (alanine substituted STIP3-1, liquid broth) (S. aureus): 100 µg/mL
- Susceptibility to SspA cleavage (SspA protease): further proteolysis can occur
- IC50, HeLa cell survival (HeLa (ATCC CCL-2) cells): 200 ± 30 µg/mL

From PMC8694143 (Microbiology Spectrum, 2021)
